According to patent US20260022142A1, “MACROCYCLIC IMMUNOMODULATORS” (Bristol-Myers Squibb Company, priority 2022, published 2026):
Bridge positions count the residues as written; N and C are the ends. Square brackets hold non-standard residues; d marks the D form. Peptide text beside a SMILES is read from it. * marks the point of attachment. ξ: configuration not given here. Phe(4-CH2CH2COOH) = N[C@@H](Cc1ccc(CCC(=O)O)cc1)C(=O)O; Phe(3-CF3) = N[C@@H](Cc1cccc(C(F)(F)F)c1)C(=O)O; Ala(morpholin-4-yl) = N[C@@H](CN1CCOCC1)C(=O)O; Phe(4-COOH) = N[C@@H](Cc1ccc(C(=O)O)cc1)C(=O)O; Bip = N[C@@H](Cc1ccc(-c2ccccc2)cc1)C(=O)O; NH(CH2)14COOH = O=C(O)CCCCCCCCCCCCCCN*; Phe(3-Me) = Cc1cccc(C[C@H](N)C(=O)O)c1; NH(CH2)12COOH = O=C(O)CCCCCCCCCCCCN*; Val(3-OH) = CC(C)(O)[C@H](N)C(=O)O; hArg = N=C(N)NCCCC[C@H](N)C(=O)O; 4Pal = N[C@@H](Cc1ccncc1)C(=O)O; 3Thi = N[C@@H](Cc1ccsc1)C(=O)O; Aad = N[C@@H](CCCC(=O)O)C(=O)O; Cha = N[C@@H](CC1CCCCC1)C(=O)O; Cit = NC(=O)NCCC[C@H](N)C(=O)O; Thr(3ξ) = CC(O)[C@H](N)C(=O)O; Dap(Me) = CNC[C@H](N)C(=O)O; 12Ado = NCCCCCCCCCCCC(=O)O; Carboxymethyl = O=C(O)C*; Orn = NCCC[C@H](N)C(=O)O; Aun = NCCCCCCCCCCC(=O)O; Dab = NCC[C@H](N)C(=O)O; Abu = CC[C@H](N)C(=O)O; Dap = NC[C@H](N)C(=O)O; AEEA = NCCOCCOCC(=O)O; Propargyl = C#CC*; CF3 = FC(F)(F)*

What follows are molecules tested against T1, PD-1/PD-L1 interaction (PE-labeled human PD-L1-Ig binding to Jurkat cell line over-expressing human PD-1) (Homo sapiens, UniProt Q15116) (assay: Jurkat-PD-1 Cell Binding High-Content Screening Assay (CBA)). Details: Jurkat cell line over-expressing human PD-1; PE-labeled PD-L1-Ig 20 nM final; read-out: Jurkat hPD1-PDL1 IC50.
T1 construct: expressed in transfected cells; host or cells: Jurkat
Type: cell-based
Procedure, shortened: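 Jurkat cells over-expressing human PD-1 (8×10^3 per well, DMEM/10% FCS) preincubated with compound 2 h at 37° C, then PE-labeled human PD-L1-Ig (20 nM final) added for 1 h. Cells fixed with paraformaldehyde, Hoechst-stained, and bound fluorescence quantified by high-content imaging.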

T1 sequence (Q15116 25-288): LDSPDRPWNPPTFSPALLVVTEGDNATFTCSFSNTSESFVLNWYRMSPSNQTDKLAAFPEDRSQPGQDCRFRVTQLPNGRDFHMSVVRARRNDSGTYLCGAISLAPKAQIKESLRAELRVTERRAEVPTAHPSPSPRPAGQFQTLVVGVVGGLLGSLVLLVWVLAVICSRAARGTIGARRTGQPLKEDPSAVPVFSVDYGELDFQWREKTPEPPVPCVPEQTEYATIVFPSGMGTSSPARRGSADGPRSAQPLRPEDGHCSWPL

| IC50 | Structure (SMILES) |
| --- | --- |
| 48.1 nM | Cc1cccc(C[C@@H]2NC(=O)[C@H](CC(=O)O)NC(=O)[C@H](CCCC(=O)O)NC(=O)[C@H]([C@@H](C)O)NC(=O)CSC[C@@H](C(=O)N[C@@H](CCN)C(=O)NCCCCCCCCCCC(=O)O)NC(=O)[C@H](CO)NC(=O)[C@H](C(C)(C)O)NC(=O)[C@H](CC3CCCCC3)NC(=O)[C@H](CCN)NC(=O)[C@@H](CC(C)C)NC(=O)[C@H](CCCN)NC(=O)[C@H](Cc3ccc(OCC(=O)O)cc3)NC(=O)[C@H](Cc3ccc(-c4ccccc4)cc3)NC(=O)[C@H](Cc3ccc(OCC(=O)O)cc3)NC2=O)c1 [Compound 2198] ({CH2CO}-T[Aad]D[Phe(3-Me)]Y(Carboxymethyl)[Bip]Y(Carboxymethyl)[Orn][dL][Dab][Cha][Val(3-OH)]SC[Dab][Aun]-OH; thioether N-14) |
| 40.4 nM | C#CCOC[C@@H]1NC(=O)[C@H](C(C)C)NC(=O)[C@H](CC2CCCCC2)NC(=O)[C@H](CCN)NC(=O)[C@@H](CC(C)C)NC(=O)[C@H](CCCN)NC(=O)[C@H](Cc2ccc(OCC(=O)O)cc2)NC(=O)[C@H](Cc2ccc(-c3ccccc3)cc2)NC(=O)[C@H](Cc2ccc(OCC(=O)O)cc2)NC(=O)[C@H](Cc2cccc(C)c2)NC(=O)[C@H](CC(=O)O)NC(=O)[C@H](Cc2ccncc2)NC(=O)[C@H](Cc2ccc(OCC(=O)O)cc2)NC(=O)CSC[C@@H](C(=O)N[C@@H](CCN)C(=O)NCCCCCCCCCCC(=O)O)NC1=O [Compound 1250] ({CH2CO}-Y(Carboxymethyl)[4Pal]D[Phe(3-Me)]Y(Carboxymethyl)[Bip]Y(Carboxymethyl)[Orn][dL][Dab][Cha]VS(Propargyl)C[Dab][Aun]-OH; thioether N-14) |
| 6.2 nM | Cc1cccc(C[C@@H]2NC(=O)[C@H](CC(=O)O)NC(=O)[C@H](Cc3ccc(C(=O)O)cc3)NC(=O)[C@H](CN3CCOCC3)NC(=O)CSC[C@@H](C(=O)N[C@@H](CCN)C(=O)NCCOCCOCC(=O)NCCOCCOCC(=O)NCCCCCCCCCCCCC(=O)O)NC(=O)[C@H](CO)NC(=O)[C@H](C(C)(C)O)NC(=O)[C@H](CC3CCCCC3)NC(=O)[C@H](CCN)NC(=O)[C@@H](CC(C)C)NC(=O)[C@H](CCCN)NC(=O)[C@H](Cc3ccc(C(=O)O)cc3)NC(=O)[C@H](Cc3ccc(-c4ccccc4)cc3)NC(=O)[C@H](Cc3ccc(C(=O)O)cc3)NC2=O)c1 [Compound 2900] ({CH2CO}-[Ala(morpholin-4-yl)][Phe(4-COOH)]D[Phe(3-Me)][Phe(4-COOH)][Bip][Phe(4-COOH)][Orn][dL][Dab][Cha][Val(3-OH)]SC[Dab][AEEA][AEEA]-{NH(CH2)12COOH}; thioether N-14) |
| 24 nM | Cc1cccc(C[C@@H]2NC(=O)[C@H](CC(=O)O)NC(=O)[C@H](Cc3ccc(OCC(=O)O)cc3)NC(=O)[C@H](CCCNC(=N)N)NC(=O)CSC[C@@H](C(=O)N[C@@H](CCCCN)C(=O)NCCCCCCCCCCC(=O)O)NC(=O)[C@H]([C@@H](C)O)NC(=O)[C@H](C(C)C)NC(=O)[C@H](CC3CCCCC3)NC(=O)[C@H](CCN)NC(=O)[C@@H](CC(C)C)NC(=O)[C@H](CCCN)NC(=O)[C@H](Cc3ccc(OCC(=O)O)cc3)NC(=O)[C@H](Cc3ccc(-c4ccccc4)cc3)NC(=O)[C@H](Cc3ccc(OCC(=O)O)cc3)NC2=O)c1 [Compound 1296] ({CH2CO}-RY(Carboxymethyl)D[Phe(3-Me)]Y(Carboxymethyl)[Bip]Y(Carboxymethyl)[Orn][dL][Dab][Cha]VTCK[Aun]-OH; thioether N-14) |
| 676 nM | CC(C)C[C@H]1NC(=O)[C@H](CCCN)NC(=O)[C@H](Cc2ccc(OCC(=O)O)cc2)NC(=O)[C@H](Cc2ccc(-c3ccccc3)cc2)NC(=O)[C@H](Cc2ccc(CCC(=O)O)cc2)NC(=O)[C@H](Cc2cccc(C(F)(F)F)c2)NC(=O)[C@H](CC(=O)O)NC(=O)[C@H](Cc2ccc(OC(F)(F)F)cc2)NC(=O)[C@H](C)NC(=O)CSC[C@@H](C(=O)N[C@@H](CCN)C(=O)NCCCCCCCCCCCCCCC(=O)O)NC(=O)[C@H](CCC(=O)O)NC(=O)[C@H](C(C)C)NC(=O)[C@H](CC2CCCCC2)NC(=O)[C@H](CCN)NC1=O [Compound 3866] ({CH2CO}-AY(CF3)D[Phe(3-CF3)][Phe(4-CH2CH2COOH)][Bip]Y(Carboxymethyl)[Orn][dL][Dab][Cha]VEC[Dab]-{NH(CH2)14COOH}; thioether N-14) |
| 8.6 nM | CNC[C@@H]1NC(=O)CSC[C@@H](C(=O)N[C@@H](CCN)C(=O)NCCCCCCCCCCCC(=O)O)NC(=O)[C@H](CCCN)NC(=O)[C@H](C(C)C)NC(=O)[C@H](CC2CCCCC2)NC(=O)[C@H](CCN)NC(=O)[C@@H](CC(C)C)NC(=O)[C@H](CCCN)NC(=O)[C@H](Cc2ccc(O)cc2)NC(=O)[C@H](Cc2ccc(-c3ccccc3)cc2)NC(=O)[C@H](C(C)C)NC(=O)[C@H](Cc2cccc(C)c2)NC(=O)[C@H](CC(=O)O)NC(=O)[C@H](Cc2ccc(OCC(=O)O)cc2)NC1=O [Compound 3592] ({CH2CO}-[Dap(Me)]Y(Carboxymethyl)D[Phe(3-Me)]V[Bip]Y[Orn][dL][Dab][Cha]V[Orn]C[Dab][12Ado]-OH; thioether N-14) |
| 33 nM | Cc1cccc(C[C@@H]2NC(=O)[C@H](CC(=O)O)NC(=O)[C@H](Cc3ccc(OCC(=O)O)cc3)NC(=O)[C@H](C(C)O)NC(=O)CSC[C@@H](C(=O)N[C@@H](CCCCN)C(=O)NCCCCCCCCCCC(=O)O)NC(=O)[C@H](C(C)O)NC(=O)[C@H](C(C)C)NC(=O)[C@H](CC3CCCCC3)NC(=O)[C@H](CCN)NC(=O)[C@@H](CC(C)C)NC(=O)[C@H](CCCN)NC(=O)[C@H](CCCNC(N)=O)NC(=O)[C@H](Cc3ccc(-c4ccccc4)cc3)NC(=O)[C@H](C(C)C)NC2=O)c1 (stereo partly drawn) [Compound 3467] ({CH2CO}-[Thr(3ξ)]Y(Carboxymethyl)D[Phe(3-Me)]V[Bip][Cit][Orn][dL][Dab][Cha]V[Thr(3ξ)]CK[Aun]-OH; thioether N-14) |
| 155 nM | Cc1cccc(C[C@@H]2NC(=O)[C@H](CC(=O)O)NC(=O)[C@H](Cc3ccc(OCC(=O)O)cc3)NC(=O)[C@H](CCCNC(=N)N)NC(=O)CSC[C@@H](C(=O)N[C@@H](CCN)C(=O)NCCCCCCCCCCC(=O)O)NC(=O)[C@H](Cc3ccsc3)NC(=O)[C@H](C(C)C)NC(=O)[C@H](CC3CCCCC3)NC(=O)[C@H](CCN)NC(=O)[C@@H](CC(C)C)NC(=O)[C@H](CCCN)NC(=O)[C@H](Cc3ccc(OCC(=O)O)cc3)NC(=O)[C@H](Cc3ccc(-c4ccccc4)cc3)NC(=O)[C@H](Cc3ccc(OCC(=O)O)cc3)NC2=O)c1 [Compound 3545] ({CH2CO}-RY(Carboxymethyl)D[Phe(3-Me)]Y(Carboxymethyl)[Bip]Y(Carboxymethyl)[Orn][dL][Dab][Cha]V[3Thi]C[Dab][Aun]-OH; thioether N-14) |
| 1.6 nM | CC[C@@H]1NC(=O)CSC[C@@H](C(=O)N[C@@H](CCN)C(=O)NCCOCCOCC(=O)NCCOCCOCC(=O)NCCCCCCCCCCC(=O)O)NC(=O)[C@H](CO)NC(=O)[C@H](C(C)(C)O)NC(=O)[C@H](CC2CCCCC2)NC(=O)[C@H](CCN)NC(=O)[C@@H](CC(C)C)NC(=O)[C@H](CCCN)NC(=O)[C@H](Cc2ccc(C(=O)O)cc2)NC(=O)[C@H](Cc2ccc(-c3ccccc3)cc2)NC(=O)[C@H](Cc2ccc(C(=O)O)cc2)NC(=O)[C@H](Cc2cccc(C)c2)NC(=O)[C@H](CC(=O)O)NC(=O)[C@H](Cc2ccc(OCC(=O)O)cc2)NC1=O [Compound 2882] ({CH2CO}-[Abu]Y(Carboxymethyl)D[Phe(3-Me)][Phe(4-COOH)][Bip][Phe(4-COOH)][Orn][dL][Dab][Cha][Val(3-OH)]SC[Dab][AEEA][AEEA][Aun]-OH; thioether N-14) |
| 58.7 nM | CC(C)C[C@H]1NC(=O)[C@H](CCCN)NC(=O)[C@H](C(C)C)NC(=O)[C@H](Cc2ccc(-c3ccccc3)cc2)NC(=O)[C@H](C(C)C)NC(=O)[C@H](Cc2c[nH]c3ccccc23)NC(=O)[C@H](CC(=O)O)NC(=O)[C@H](Cc2ccc(OCC(=O)O)cc2)NC(=O)[C@H](CN)NC(=O)CSC[C@@H](C(=O)N[C@@H](CCCCN)C(=O)NCCCCCCCCCCCC(=O)O)NC(=O)[C@H](C(C)O)NC(=O)[C@H](C(C)C)NC(=O)[C@H](CC2CCCCC2)NC(=O)[C@H](CCCNC(=N)N)NC1=O (stereo partly drawn) [Compound 3150] ({CH2CO}-[Dap]Y(Carboxymethyl)DWV[Bip]V[Orn][dL]R[Cha]V[Thr(3ξ)]CK[12Ado]-OH; thioether N-14) |
| 4 nM | CC(C)C[C@H]1NC(=O)[C@H](CCCN)NC(=O)[C@H](C(C)C)NC(=O)[C@H](Cc2ccc(-c3ccccc3)cc2)NC(=O)[C@H](C(C)C)NC(=O)[C@H](Cc2c[nH]c3ccccc23)NC(=O)[C@H](CC(=O)O)NC(=O)[C@H](Cc2ccc(OCC(=O)O)cc2)NC(=O)[C@H](CCCCNC(=N)N)NC(=O)CSC[C@@H](C(=O)NCC(=O)NCCOCCOCC(=O)N[C@@H](CCCN)C(=O)NCCCCCCCCCCC(=O)O)NC(=O)[C@H](CCCN)NC(=O)[C@H](C(C)C)NC(=O)[C@H](CC2CCCCC2)NC(=O)[C@H](CCN)NC1=O [Compound 3198] ({CH2CO}-[hArg]Y(Carboxymethyl)DWV[Bip]V[Orn][dL][Dab][Cha]V[Orn]CG[AEEA][Orn][Aun]-OH; thioether N-14) |
| 118 nM | CC(C)C[C@@H]1NC(=O)[C@H](Cc2c[nH]c3ccccc23)NC(=O)[C@H](CC(=O)O)NC(=O)[C@H](Cc2ccc(OCC(=O)O)cc2)NC(=O)[C@H](C(C)O)NC(=O)CSC[C@@H](C(=O)N[C@@H](CCN)C(=O)NCCCCCCCCCCC(=O)O)NC(=O)[C@H](CCN)NC(=O)[C@H](C(C)O)NC(=O)[C@H](CC2CCCCC2)NC(=O)[C@H](CCN)NC(=O)[C@@H](CC(C)C)NC(=O)[C@H](CCCN)NC(=O)[C@H](Cc2ccc(O)cc2)NC(=O)[C@H](Cc2ccc(-c3ccccc3)cc2)NC1=O (stereo partly drawn) [Compound 3683] ({CH2CO}-[Thr(3ξ)]Y(Carboxymethyl)DWL[Bip]Y[Orn][dL][Dab][Cha][Thr(3ξ)][Dab]C[Dab][Aun]-OH; thioether N-14) |
